The IC50 is the midpoint of a concentration-inhibition curve.

Type in all cases: cell-based, human
The test system of one assay is A549 cells. The assay is described as follows: Inhibition of cell proliferation, CCK8 method. The note with it: A549 lung adenocarcinoma cells, 48 h, read-out: Inhibitory activity (IC50) against A549. The procedure: (§1) Compounds 1-9 of the present invention were respectively weighed and dissolved in 1 ml of dimethyl sulfoxide (DMSO), to prepare a 10 mM drug solution, which was stored in a refrigerator at −20° C. in the dark after packaging. The stock solution was diluted with the corresponding culture medium to the required concentration just before the experiment.
(§2) HBE cells and BEAS-2B cells are normal lung bronchial epithelial cell lines, and both cells were cultured in DMEM high glucose medium (supplemented with 10% fetal bovine serum and 1% double antibody) to the logarithmic growth phase; H460 cells, A549 cells, H1975 cells and HCC827 cells are lung cancer cell lines, and all of them were cultured in RPMI1640 medium (supplemented with 10% fetal bovine serum and 1% double antibody) to the logarithmic growth phase. Among them, H1975 cells and HCC827 cells are EGFR mutant cells.
(§3) When the cells were cultured to 90% of the growth density, the cells were digested with 0.25% trypsin to prepare a single cell suspension. The cells were counted, and then seeded in a 96-well plate at a density of 5000 cells/well, 100 μl for each well. The culture plate was moved into a CO2 incubator and incubated for 24 h at 37° C. and 5% CO2. Compounds at different concentrations were added to each well, 5 replicate wells for each concentration, and the cells were treated with the compounds for 48 hours. CCK8 detection reagent was added to each well according to the operation manual, and then the plate was further incubated for 1 h before terminating the culture. 450 nm wavelength was chosen, and the absorbance value of each well was adjusted on the microplate ELISA analyzer. The result was recorded. […] was taken as the horizontal axis, and absorbance as the vertical axis to plot a curve. The half inhibitory concentration (IC50) was calculated by Bliss method. Each experiment was repeated at least 3 times.
(§4) Normal lung cell lines and different lung cancer cell lines were selected for experiments. Amongst, the compound with high anti-cancer activity was screened, whose anti-tumor activity was further studied.
For orientation: Tetrazolium assays rely on reduction of a dye to a coloured formazan, in cell work by metabolically active cells.

The subject of another assay is BEAS-2B cells. Nature of the assay: Inhibition of cell proliferation, CCK8 method. The note with it: BEAS-2B normal bronchial epithelial cells, 48 h, read-out: Inhibitory activity (IC50) against BEAS-2B. The procedure:
as §1, §2, §3, §4

The subject of another assay is H460 cells. Nature of the assay: Inhibition of cell proliferation, CCK8 method. The note with it: 48 h, read-out: Inhibitory activity (IC50) against H460. The procedure: as §1, §2, §3, §4
In assay [1] the test system is HCC827 cells. The assay is described as follows: Inhibition of cell proliferation, CCK8 method. The following applies: HCC827 EGFR mutant cells, 48 h, CCK8, read-out: Inhibitory activity (IC50) against HCC827. The procedure:
(§5) The stock solution was diluted with the corresponding culture medium to the required concentration just before the experiment.
as §2
as §3, with “The” for “When the cells were cultured to 90% of the growth density, the cells were digested with 0.25% trypsin to prepare a single cell suspension. The”
(§6) Normal lung cell lines and different lung cancer cell lines were selected for experiments.

Assay [2] concerns H1975 cells. The assay is described as follows: Apoptosis, Annexin V-FITC/PI double staining, flow cytometry. The note with it: 18 h (control 9.2). The procedure: (§7) Apoptosis was detected by Annexin V-FITC/PI double staining method. A variety of different cells in the logarithmic growth phase were inoculated evenly in a 6-well plate at a concentration of 1×10^6 cells/well, 2 ml for each well, and then incubated overnight. Then, different compounds were added, and each compound was set different concentrations. After 18 h, the cells were collected with 0.25% trypsin without EDTA and washed twice with PBS solution. Then, the cells were stained by the apoptosis detection kit according to the instructions, and analyzed by flow cytometry.
(§8) In the experiment, human lung cancer cells HCC827 cells and H1975 cells were selected as the detection system. The control group was a blank control (DMSO). The test concentrations of the compounds were 0.5 μM and 5 μM. After treatment with the compounds for 18 h, the flow cytometry was used for detection. In the apoptosis result graph, the cells in quadrant E1 are necrotic cells, the cells in quadrant E2 are late apoptotic cells, the cells in quadrant E3 area represent live cells, and the cells in quadrant E4 are early apoptotic cells.

In assay [3] the test system is HCC827 cells. The assay is described as above. The note with it: 18 h (control 10.8). The procedure: as §7, §8
Assay [4] deals with H1975 cells. Nature of the assay: Cell cycle, PI staining, flow cytometry. The note with it: 18 h (control 30.25). The procedure: (§9) A variety of different cells in the logarithmic growth phase were inoculated evenly in a 6-well plate at a concentration of 1×10^6 cells/well, 2 ml for each well, and then incubated overnight. Then, different compounds were added, and each compound was set different concentrations. After 18 h, the cells were collected, resuspended in PBS, and centrifuged to remove the supernatant, to which was then added 0.5 ml of pre-cooled 75% absolute ethanol dropwise, followed by vortexing to mix the cells and standing overnight at 4° C. The solution was centrifuged at 1000 rpm/min for 4 min, and the supernatant was discarded. Propidium iodide staining solution was prepared by using 5.6 ml staining buffer, 210 μl propidium iodide staining solution (25×), and 56 μl RNaseA (2.5 mg/ml). 0.4 ml of propidium iodide staining solution was added to each tube to resuspend the cells, and then incubated for 30 min at room temperature in the dark. The cell suspension was gently pipetted to mix, filtered into a flow tube, and stored in the dark at 4° C. The cells were detected on the flow cytometer within 1 h.
For orientation: Flow cytometry measures light scatter and fluorescence of single cells or particles in a stream.

Assay [5] has as its system HCC827 cells. Nature of the assay: Cell cycle, PI staining, flow cytometry. The following applies: 18 h (control 33.66). The procedure: as §9
Assay [6] has as its system H1975 cells. Nature of the assay: Inhibition of cell proliferation, CCK8 method. The following applies: H1975 EGFR mutant cells, 48 h, read-out: Inhibitory activity (IC50) against H1975. The procedure:
as §5, §2
as §3, with “The” for “When the cells were cultured to 90% of the growth density, the cells were digested with 0.25% trypsin to prepare a single cell suspension. The”
as §6

Assay [7] relates to normal cells and different lung cancer cell lines. Nature of the assay: Inhibition of cell proliferation, CCK8 method, comparison in words over the whole cell panel. The following applies: BEAS-2B, HBE, H460, A549, H1975, HCC827; CCK8, 48 h. The procedure:
as §1, §2, §3, §4

A further assay concerns HBE cells. The assay is described as follows: Inhibition of cell proliferation, CCK8 method. The note with it: HBE normal bronchial epithelial cells, 48 h, CCK8; read-out: Inhibitory activity (IC50) against HBE. The procedure:
as §5, §2
as §3, with “The” for “When the cells were cultured to 90% of the growth density, the cells were digested with 0.25% trypsin to prepare a single cell suspension. The”
as §6

The mark [8] stands for this setting: H460 large cell lung cancer cells.

The structures appear in SMILES notation. Read-outs that look alike come from different tables or passages of the source.

Consider `C=CC(=O)Nc1cccc(Oc2nc(Nc3ccc(N4CCN(C)CC4)c(F)c3)nc3[nH]ccc23)c1` [Avitinib, reference compound], for which the IC50 in the assay on A549 cells (Homo sapiens) was determined as 2.01 µM; in the assay with BEAS-2B cells (Homo sapiens), 4.11 µM; in the assay with H460 cells (Homo sapiens, NCI-H460, H460 large cell lung cancer cells), 5.68 µM; in the assay on HCC827 cells [1] (Homo sapiens), 0.11 µM. The “Total apoptosis rate (%)” value turned out to be 9.5% in the assay on H1975 cells [2] (0.5 μM), 11.7% with H1975 cells [2] (5 μM), 30.3% in the assay on HCC827 cells [3] (0.5 μM) and 35.4% in the assay with HCC827 cells [3] (5 μM). Also, the “S phase (%)” value in the assay with H1975 cells [4] (0.5 μM) came to 3.74%; in the assay on H1975 cells [4] (5 μM), 13.19%; with HCC827 cells [5] (0.5 μM) it was 9.09%; in the assay with HCC827 cells [5] (5 μM), 10.83%.
Take `C=CC(=O)Nc1cccc(Oc2nc(Nc3ccc(N4CCN(C)CC4)c(F)c3)nc3[nH]ccc23)c1` [Compound 1]: the IC50 is 1.92 µM in the assay with A549 cells; 3.68 µM in the assay with BEAS-2B cells; 6.02 µM in the assay with H460 cells (setting [8]); 2.06 µM in the assay with H1975 cells [6]; 0.1 µM in the assay on HCC827 cells [1]. Also, the “inhibitory effect on different cell lines (in words)” value in assay [7] is “basically the same as that of the positive control”.
Consider `C=CC(=O)Nc1cccc(Oc2nc(Nc3ccc(N4CCN(C)CC4)cc3)nc3[nH]ccc23)c1` [Compound 3], for which the IC50 in the assay with A549 cells was determined as 9.92 µM; in the assay on BEAS-2B cells it was 23.8 µM; in the assay with H460 cells (setting [8]) it was 36 µM; in the assay on H1975 cells [6], 22 µM; with HBE cells it was 28.1 µM; in the assay on HCC827 cells [1], 0.24 µM. Moreover, in assay [7], the “inhibitory effect on different cell lines (in words)” value is on record as “lower”.

Values taken from patent US20230075765A1, “PYRROLO[2,3-D]PYRIMIDINE DERIVATIVE TARGETING EGFR MUTATION, AS WELL AS THE PREPARATIVE METHOD AND THE USE THEREOF” (WEST CHINA HOSPITAL, SICHUAN UNIVERSITY, priority 2020, published 2023).
